Laboratory results from US20030219427A1, “TPL-2/COT kinase and methods of use” (priority 1998, published 2003).
“Also recorded” adds a separate entry of the source. Blank lines part the entries; values can stand above or below the molecule they belong to. Peptide text beside a SMILES is read from it. * marks the point of attachment. Cbz = O=C(OCc1ccccc1)*

Tests used:
[1] = target: T1, TPL-2/COT kinase (FLAG-COT (30-397)) (Homo sapiens, UniProt P41279); test: TPL-2/COT kinase assay and inhibitor screening (COT autophosphorylation and phosphorylation of GST-IκB-α); assay type: biochemical; conditions: for inhibitory activity on COT autophosphorylation and phosphorylation of a COT target (IκB-α): initial screen at 100 μM in duplicate; for IC50: retested at 100 μM, 10 μM and 1 μM, compared to DMSO vehicle control, read-out: IC50 for TPL-2 inhibition (inhibits TPL-2 kinase activity by 50%)
T1 construct: made in house; host or cells: human 293A cells, transient transfection of a pcDNA vector, anti-FLAG immunoprecipitation
Description: FLAG-tagged COT protein was expressed in 293A cells by transfection. Typically, 24 h before transfection, human 293A cells (Quantum) were plated at 2×10^6 cells per 10 cm plate. A transfection mixture was prepared comprising 60 μl Lipofectamine (Gibco) and 800 μl Optimem (Gibco) in 15 ml tube. In. a separate tube, 8 μg of DNA encoding a FLAG-tagged COT(30-397) gene in a pcDNA vector was added to 800 μl Optimem. The contents of each tube were then mixed gently with a pipette, and allowed to incubate at room temperature for 25 min. Cells were washed once with Optimem and incubated with the transfection mixture and 6.4 ml of Optimem and allowed to incubate 5 h at 37° C. and 5% CO2. Cells were then incubated with 8 ml DMEM+10% FBS+L-glutamine on day 1, DMEM+5% FBS+L-glutamine on day 2 and harvested 48 h post-transfection.
Transfected 293A cells expressing FLAG-COT (30-397) were lysed on ice for 15 min in lysis buffer (1% Triton X-100, 50 mM Tris-HCl pH 7.5, 150 mM NaCl, 1 mM EDTA, 1 mM EGTA, 20 mM NaF, 10 mM Na4P2O7, 50 mM Na3VO4 plus Complete protease inhibitors (Boehringer)) and lysates were centrifuged (14,000 rpm for 10 min at 4° C.) and supernatants were collected. Immunoprecipitations were performed using FLAG Ab gel (Sigma) at 50 μg Ab per ml of lysate for 3 h at 4° C. with mixing. Gel beads were washed at 4° C. twice with lysis buffer and then twice with wash buffer (50 mM Tris-HCl pH 7.5, 100 mM NaCl, 0.1 mM EGTA and 1 mM DTT). Gel beads were then resuspended in wash buffer and aliquoted into tubes for various kinase reactions.
A TPL-2/COT kinase assay was used to screen various candidate TPL-2/COT kinase inhibitors. The kinase assay was performed a follows. A TPL-2 kinase (i.e., FLAG-COT (30-397)) bound on gel beads was incubated with 2 μg of a target polypeptide substrate (i.e., GST IκB-α (1-50) (Boston Biologicals) in kinase buffer (50 mM Tris-HCl pH 7.5, 10 mM MgCl2, 1 mM EGTA, 2 mM DTT and 0.01% Brij 35) in the presence of an appropriate radiolabel (30 μM ATP and 5 μCi γ-^32P-ATP (Amersham)) for 10 min at 25° C. Reactions were performed in the presence or absence of candidate compounds for inhibitor activity that were prepared as 10 mM stock solutions in 100% DMSO. The test compounds were added to the kinase reaction mixture immediately before addition of […]. Reactions were stopped by the addition of 5×SDS sample buffer, heating at 100° C. for 3 min and supernatants were collected using centrifugation. The autophosphorylation of COT and phosphorylation of the target polypeptide, i.e., GST-IκB-α were analyzed by gel electrophoresis (10% SDS-PAGE) followed by transfer to nitrocellulose membranes and autoradiography. As a control to confirm equivalent levels of FLAG-COT(30-397) and GST-IκB-α proteins were used in the different kinase reactions and also equivalent gel loading, immunoblots were performed with anti-FLAG and anti-GST antibodies, respectively, on the same membranes used for autoradiography. Inhibition of COT kinase activity, either autophosphorylation activity or phosphorylation of the target polypeptide GST-IκB-α was quantitated by scanning of autoradiographs (FIG. 13). Compounds that altered the level of these activities were further analyzed as described below.
As similarly described above, a TPL-2 polypeptide expressed in insect cells was tested for kinase activity using a target polypeptide in the presence or absence of a candidate modulator compound. […]

[2] = tested on: TPL-2-induced myc-p105 proteolysis in 3T3 cells; test: Pulse-chase metabolic labeling of TPL-2-induced myc-p105 proteolysis; assay type: cell-based
Description: Pulse-chase metabolic labeling is performed to determine whether TPL-2 regulates the proteolysis of myc-p105 in 3T3 fibroblasts. For pulse-chase metabolic labeling, NIH-3T3 fibroblasts are transiently transfected using LipofectAMINE (Gibco-BRL) (Huby, et al., (1997) J. Cell. Biol. 137, 1639-1649). Preparation of cytoplasmic and nuclear fractions is performed as described (Watanabe, et al., (1997)
EMBO J. 16, 3609-3620). For pulse-chase metabolic labeling, 2.7×10^5 3T3 cells per 60 mm dish (Nunc) are transfected with the indicated expression vectors. After 24 h, cells are washed and cultured in Met/Cys-free medium for 1 h. Cells are then labeled with 145 MBq of [^35S]-Met/[^35S]-Cys (Pro-Mix, Amersham-Pharmacia Biotech) per dish for 30 min and after washing, chased in complete medium for the indicated times. […] MG132 proteasome inhibitor (Biomol Research labs) is added at […] during the last 15 min of the Met/Cys starvation period and is maintain throughout the chase. Labeled bands are quantified by laser densitometry using a Molecular Dynamics Personal Densitometer. All pulse-chase experiments are performed on at least two occasions with similar results.
The effect of the peptide aldehyde MG132, a potent inhibitor of the proteasome, is determined to investigate whether myc-p105 proteolysis induced by TPL-2 is mediated by the proteasome. […]

HA-p105(369-969) = target: T2, HA-p105(369-969) (Homo sapiens (Human), UniProt P19838 368-968); test: co-expression in Sf9 cells, purification of the complex from lysates
T2 construct: also called p105?N
T2 sequence: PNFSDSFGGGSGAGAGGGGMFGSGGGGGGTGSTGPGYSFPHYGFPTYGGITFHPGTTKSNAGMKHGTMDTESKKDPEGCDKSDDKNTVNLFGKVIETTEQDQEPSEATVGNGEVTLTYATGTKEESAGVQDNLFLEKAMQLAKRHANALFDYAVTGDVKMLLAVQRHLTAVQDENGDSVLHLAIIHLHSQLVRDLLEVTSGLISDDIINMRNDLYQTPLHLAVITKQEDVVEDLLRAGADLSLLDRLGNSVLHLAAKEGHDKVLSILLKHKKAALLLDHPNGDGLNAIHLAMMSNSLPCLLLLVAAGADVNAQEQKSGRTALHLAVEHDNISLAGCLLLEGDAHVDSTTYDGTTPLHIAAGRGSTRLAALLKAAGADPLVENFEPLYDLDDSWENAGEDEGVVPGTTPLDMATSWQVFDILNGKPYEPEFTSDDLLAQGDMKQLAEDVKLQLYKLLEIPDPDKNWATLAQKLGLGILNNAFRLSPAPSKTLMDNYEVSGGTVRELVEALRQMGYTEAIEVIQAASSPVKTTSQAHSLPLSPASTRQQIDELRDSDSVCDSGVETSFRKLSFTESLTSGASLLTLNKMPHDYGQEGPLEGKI

Myc-TPL-2 = Myc-TPL-2 (Homo sapiens (Human), UniProt P41279 1-467); test: cell-based or functional assay
[3] = target: T3, Myc-Raf1(CAAX) MEK kinase activity (Homo sapiens, UniProt P04049); test: In vitro MEK kinase assay, activated Raf1; assay type: biochemical
T3 construct: CAAX membrane-targeting motif (C); made in house

Myc-TPL-2ΔC = Myc-TPL-2ΔC (Homo sapiens (Human), UniProt P41279 1-397); test: cell-based or functional assay

inhibitory activity on COT autophosphorylation and phosphorylation of a COT target (IκB-α) [1]: little or no inhibitory activity
Molecule: COc1cccc(-c2cc(=O)c3ccccc3o2)c1N [PD98059]

IC50 [1]: 10 µM
Molecule: CCOC(=O)c1cnc2c(c1Nc1ccc(Sc3ccccc3)cc1)C(=O)CCC2 [ethyl 5-oxo-4-[4-(phenylsulfanyl)anilino]-5,6,7,8-tetrahydro-3-quinolinecarboxylate]

binding result (HA-p105(369-969)): binds
B1: Flag-COT(30-397) (enzyme, not shown: small tags and cut ends)
chain: MENLYASEEPAVYEPSLMTMCQDSNQNDERSKSLLLSGQEVPWLSSVRYGTVEDLLAFANHISNTAKHFYGQRPQESGILLNMVITPQNGRYQIDSDVLLIPWKLTYRNIGSDFIPRGAFGKVYLAQDIKTKKRMACKLIPVDQFKPSDVEIQACFRHENIAELYGAVLWGETVHLFMEAGEGGSVLEKLESCGPMREFEIIWVTKHVLKGLDFLHSKKVIHHDIKPSNIVFMSTKAVLVDFGLSVQMTEDVYFPKDLRGTEIYMSPEVILCRGHSTKADIYSLGATLIHMQTGTPPWVKRYPRSAYPSYLYIIHKQAPPLEDIADDCSPGMRELIEASLERNPNHRPRAADLLKHEALNPPREDQPR

binding result (HA-p105(369-969)): binds
B2: Flag-COT(30-467) (enzyme, not shown: small tags and cut ends)
chain: MENLYASEEPAVYEPSLMTMCQDSNQNDERSKSLLLSGQEVPWLSSVRYGTVEDLLAFANHISNTAKHFYGQRPQESGILLNMVITPQNGRYQIDSDVLLIPWKLTYRNIGSDFIPRGAFGKVYLAQDIKTKKRMACKLIPVDQFKPSDVEIQACFRHENIAELYGAVLWGETVHLFMEAGEGGSVLEKLESCGPMREFEIIWVTKHVLKGLDFLHSKKVIHHDIKPSNIVFMSTKAVLVDFGLSVQMTEDVYFPKDLRGTEIYMSPEVILCRGHSTKADIYSLGATLIHMQTGTPPWVKRYPRSAYPSYLYIIHKQAPPLEDIADDCSPGMRELIEASLERNPNHRPRAADLLKHEALNPPREDQPRCTSLDSALLERKRLLSRKELELPENIADSSCTGSTEESEMLKRQRSLYIDLGALAGYFNLVRGPPTLEYG

IC50 of inhibition of TPL-2 MEK kinase activity in vitro (Myc-TPL-2): 0.55 µM
B3: recombinant p105808-892 protein (p105 DD) (other)
chain: DMKQLAEDVKLQLYKLLEIPDPDKNWATLAQKLGLGILNNAFRLSPAPSKTLMDNYEVSGGTVRELVEALRQMGYTEAIEVIQAA
effect on Myc-Raf1(CAAX) MEK kinase activity [3]: no effect

Further lines, the molecule ahead of its results:

Molecule: C[S+]([O-])c1ccc(-c2nc(-c3ccncc3)c(-c3ccc(F)cc3)[nH]2)cc1 (stereo not drawn) [SB 203580]
inhibitory activity on COT autophosphorylation and phosphorylation of a COT target (IκB-α) [1]: little or no inhibitory activity

Molecule: c1ccc(Oc2ccc3nccc(Nc4ccc(Sc5ccccc5)cc4)c3c2)cc1 [N-(6-phenoxy-4-quinolyl)-N-[4-(phenylsulfanyl)phenyl]amine]
IC50 [1]: 50 µM

Molecule: CC(C)C[C@@H](C=O)NC(=O)[C@H](CC(C)C)NC(=O)[C@H](CC(C)C)NC(=O)OCc1ccccc1 [MG132] (Cbz-Leu-Leu-Leu-aldehyde)
effect on TPL-2-induced increased turnover (proteolysis) of myc-p105 ([2]; 3T3 cells co-transfected with myc-p105 and TPL-2, drug maintained throughout chase): blocks increased turnover of myc-p105 | effect on production of myc-p50 ([2]; TPL-2 co-expressing 3T3 cells, during the chase): completely prevents production of myc-p50; also recorded: completely blocked the production of myc-p50

Molecule: CN[C@@H]1C[C@H]2O[C@@](C)([C@@H]1OC)n1c3ccccc3c3c4c(c5c6ccccc6n2c5c31)C(=O)NC4 [staurosporine]
inhibitory activity on COT autophosphorylation and phosphorylation of a COT target (IκB-α) [1]: little or no inhibitory activity

B4: HA-p105 (other, not shown: small tags and cut ends)
chain: MAEDDPYLGRPEQMFHLDPSLTHTIFNPEVFQPQMALPTADGPYLQILEQPKQRGFRFRYVCEGPSHGGLPGASSEKNKKSYPQVKICNYVGPAKVIVQLVTNGKNIHLHAHSLVGKHCEDGICTVTAGPKDMVVGFANLGILHVTKKKVFETLEARMTEACIRGYNPGLLVHPDLAYLQAEGGGDRQLGDREKELIRQAALQQTKEMDLSVVRLMFTAFLPDSTGSFTRRLEPVVSDAIYDSKAPNASNLKIVRMDRTAGCVTGGEEIYLLCDKVQKDDIQIRFYEEEENGGVWEGFGDFSPTDVHRQFAIVFKTPKYKDINITKPASVFVQLRRKSDLETSEPKPFLYYPEIKDKEEVQRKRQKLMPNFSDSFGGGSGAGAGGGGMFGSGGGGGGTGSTGPGYSFPHYGFPTYGGITFHPGTTKSNAGMKHGTMDTESKKDPEGCDKSDDKNTVNLFGKVIETTEQDQEPSEATVGNGEVTLTYATGTKEESAGVQDNLFLEKAMQLAKRHANALFDYAVTGDVKMLLAVQRHLTAVQDENGDSVLHLAIIHLHSQLVRDLLEVTSGLISDDIINMRNDLYQTPLHLAVITKQEDVVEDLLRAGADLSLLDRLGNSVLHLAAKEGHDKVLSILLKHKKAALLLDHPNGDGLNAIHLAMMSNSLPCLLLLVAAGADVNAQEQKSGRTALHLAVEHDNISLAGCLLLEGDAHVDSTTYDGTTPLHIAAGRGSTRLAALLKAAGADPLVENFEPLYDLDDSWENAGEDEGVVPGTTPLDMATSWQVFDILNGKPYEPEFTSDDLLAQGDMKQLAEDVKLQLYKLLEIPDPDKNWATLAQKLGLGILNNAFRLSPAPSKTLMDNYEVSGGTVRELVEALRQMGYTEAIEVIQAASSPVKTTSQAHSLPLSPASTRQQIDELRDSDSVCDSGVETSFRKLSFTESLTSGASLLTLNKMPHDYGQEGPLEGKI
MEK kinase activity of TPL-2ΔC relative to wild type TPL-2 in cells expressing p105 (Myc-TPL-2ΔC): > 40 fold
